Reference: ChEMBL document CHEMBL3616454, “Synthesis and antiviral activity of some new bis-1,3-thiazole derivatives” (Eur J Med Chem, 2015)
Values after ≈ are worked out from the molar mass of the structure shown.

Columns and labels:
[1] = Antiviral activity against Influenza A virus (A/California/07/2009(H1N1)) infected in MDCK cell line assessed as reduction of virus induced cytopathic effect by neutral red assay; assay type: functional, cell-based
[2] = Selectivity index, ratio of CC50 for MDCK cells by neutral red method to EC50 for Influenza A virus (A/California/07/2009(H1N1) virus by neutral red method; assay type: toxicity, cell-based; details: dog, read-out: Ratio CC50/EC50
[3] = Cytotoxicity against MDCK cells assessed as cell viability by visual assay; assay type: cell-based, Canis lupus familiaris; details: dog
[4] = Antiviral activity against Influenza A virus (A/California/07/2009(H1N1) infected in MDCK cell line assessed as reduction of virus induced cytopathic effect by visual assay; assay type: functional, cell-based
[5] = Cytotoxicity against MDCK cells assessed as cell viability by neutral red assay; assay type: cell-based, Canis lupus familiaris; details: dog
[6] = Selectivity index, ratio of CC50 for MDCK cells by visual method to EC50 for Influenza A virus (A/California/07/2009(H1N1) virus by visual method; assay type: toxicity, cell-based; details: dog, read-out: Ratio CC50/EC50
[7] = Selectivity index, ratio of CC50 for luciferase expressing Huh/NeoET cells to EC50 for Hepatitis C virus 1b CON1; assay type: toxicity, cell-based; details: human, read-out: Ratio CC50/EC50
[8] = Cytotoxicity against human Huh/NeoET cells assessed as cell viability by cytoTox1 cell proliferation assay; assay type: cell-based
Hepatitis C virus [9] = experiment: Antiviral activity against Hepatitis C virus 1b CON1 infected in human Huh/NeoET cells expressing luciferase assessed as reduction of virus induced cytopathic effect by luciferse reporter assay; assay type: functional, cell-based, Hepacivirus hominis; details: genotype 1b Con1, Huh/NeoET
Hepatitis C virus [10] = experiment: Antiviral activity against HCV 1b Con1 infected in human Huh7.5 cells assessed as reduction of virus induced cytopathic effect by qRT-PCR; assay type: functional, cell-based, Hepacivirus hominis; details: genotype 1b Con1, Huh-7
[11] = Selectivity index, ratio of CC50 for human HuH7.5 cells to EC50 for HCV 1b/2a (Con-1/JFH-1); parameters: species or system Huh-7
[12] = Selectivity index, ratio of CC50 for human HuH7 cells to EC50 for Hepatitis C virus 1a H77; assay type: toxicity, cell-based, Huh-7; details: read-out: Ratio CC50/EC50
[13] = Selectivity index, ratio of CC50 for human HuH7 cells to EC50 for HCV 2a (JFH1); parameters: species or system Huh-7
[14] = Selectivity index, ratio of CC50 for human HuH7 cells to EC50 for HCV 1a/2a (H77/JFH1); parameters: species or system Huh-7
Hepatitis C virus [15] = experiment: Antiviral activity against HCV 2a (JFH1) infected in human Huh7 cells assessed as reduction of virus induced cytopathic effect by luciferase reporter assay; assay type: functional, organism-based, Hepacivirus hominis; details: Huh-7
Hepatitis C virus [16] = experiment: Antiviral activity against HCV 1b/2a (Con-1/JFH-1) infected in human Huh7.5 cells assessed as reduction of virus induced cytopathic effect by luciferase reporter assay; assay type: functional, organism-based, Hepacivirus hominis; details: Huh-7
[17] = Selectivity index, ratio of CC50 for human HuH7.5 cells to EC50 for HCV 2a/2a (J6/JFH1); parameters: species or system Huh-7
[18] = Cytotoxicity against human HuH7 cells assessed as cell viability by cytoTox1 cell proliferation assay; assay type: cell-based, Huh-7
Hepatitis C virus [19] = experiment: Antiviral activity against HCV 1a H77 infected in human Huh7.5 cells assessed as reduction of virus induced cytopathic effect by qRT-PCR; assay type: functional, cell-based, Hepacivirus hominis; details: genotype 1a H77, Huh-7
[20] = Selectivity index, ratio of CC50 for human HuH7 cells to EC50 for Hepatitis C virus 1b CON1; assay type: toxicity, cell-based, Huh-7; details: read-out: Ratio CC50/EC50
Hepatitis C virus [21] = experiment: Antiviral activity against HCV 2a/2a (J6/JFH1) infected in human Huh7.5 cells assessed as reduction of virus induced cytopathic effect by luciferase reporter assay; assay type: functional, organism-based, Hepacivirus hominis; details: Huh-7
Hepatitis C virus [22] = experiment: Antiviral activity against HCV 1a/2a (H77/JFH1) infected in human Huh7.5 cells assessed as reduction of virus induced cytopathic effect by luciferase reporter assay; assay type: functional, organism-based, Hepacivirus hominis; details: Huh-7
[23] = Cytotoxicity against human Huh7.5 cells assessed as cell viability by cytoTox1 cell proliferation assay; assay type: cell-based, Huh-7.5

CCOC(=O)C1=C(C)N(c2ccccc2)/C(=C2\S/C(=N/c3nc(-c4c(C)n(C)n(-c5ccccc5)c4=O)cs3)N(c3ccccc3)C2=O)S1
EC50 [1]: 92 µg/mL (≈ 130 µM)
selectivity ratio [2]: > 1.1
CC50 [3]: > 100 µg/mL
EC50 [4]: 68 µg/mL (≈ 96.2 µM)
CC50 [5]: > 100 µg/mL
selectivity ratio [6]: > 1.5

Cc1c(-c2csc(/N=C3/S/C(=C4/SCC(=O)N4c4ccccc4)C(=O)N3c3ccccc3)n2)c(=O)n(-c2ccccc2)n1C
EC50 [1]: 23 µg/mL (≈ 36.1 µM)
selectivity ratio [7]: > 2
selectivity ratio [2]: > 4.3
CC50 [3]: > 100 µg/mL
CC50 [8]: > 20 µM
EC50 [4]: 23 µg/mL (≈ 36.1 µM)
CC50 [5]: > 100 µg/mL
selectivity ratio [6]: > 4.2
EC50 (Hepatitis C virus [9]): 12.7 µM
EC90 (Hepatitis C virus [9]): > 20 µM

CC(=O)C1=NN(c2ccccc2)/C(=C2\S/C(=N/c3nc(-c4c(C)n(C)n(-c5ccccc5)c4=O)cs3)N(c3ccccc3)C2=O)S1
EC50 (Hepatitis C virus [10]): 0.46 µM
EC90 (Hepatitis C virus [10]): > 20 µM
Ratio CC50/EC50 [11]: >18
selectivity ratio [12]: 1
selectivity ratio [7]: > 36
Ratio CC50/EC50 [13]: >1
Ratio CC50/EC50 [14]: >1
EC50 (Hepatitis C virus [15]): 17.7 µM
EC90 (Hepatitis C virus [15]): > 20 µM
EC50 (Hepatitis C virus [16]): 1.09 µM
EC90 (Hepatitis C virus [16]): > 20 µM
Ratio CC50/EC50 [17]: >13
CC50 [18]: > 20 µM
EC50 (Hepatitis C virus [19]): > 20 µM
EC90 (Hepatitis C virus [19]): > 20 µM
selectivity ratio [20]: > 43
CC50 [8]: > 20 µM
EC50 (Hepatitis C virus [21]): 1.54 µM
EC90 (Hepatitis C virus [21]): > 20 µM
EC50 (Hepatitis C virus [22]): 13.6 µM
EC90 (Hepatitis C virus [22]): > 20 µM
CC50 [23]: > 20 µM
EC50 (Hepatitis C virus [9]): 0.56 µM
EC90 (Hepatitis C virus [9]): 1.81 µM

CC(=O)C1=NN(c2ccc(Cl)cc2)/C(=C2\S/C(=N/c3nc(-c4c(C)n(C)n(-c5ccccc5)c4=O)cs3)N(c3ccccc3)C2=O)S1
selectivity ratio [7]: > 18
CC50 [8]: > 20 µM
EC50 (Hepatitis C virus [9]): 1.12 µM
EC90 (Hepatitis C virus [9]): 14.4 µM

CC(=O)C1=NN(c2ccc(C)cc2)/C(=C2\S/C(=N/c3nc(-c4c(C)n(C)n(-c5ccccc5)c4=O)cs3)N(c3ccccc3)C2=O)S1
selectivity ratio [7]: > 19
CC50 [8]: > 20 µM
EC50 (Hepatitis C virus [9]): 1.04 µM
EC90 (Hepatitis C virus [9]): 4.76 µM

COc1ccc(N2N=C(C(C)=O)S/C2=C2/S/C(=N/c3nc(-c4c(C)n(C)n(-c5ccccc5)c4=O)cs3)N(c3ccccc3)C2=O)cc1
selectivity ratio [7]: > 7
CC50 [8]: > 20 µM
EC50 (Hepatitis C virus [9]): 2.8 µM
EC90 (Hepatitis C virus [9]): 15.5 µM

NC(=O)c1ncn([C@@H]2O[C@H](CO)[C@@H](O)[C@H]2O)n1 [RIBAVIRIN]
EC50 [1]: 16 µg/mL (≈ 65.5 µM)
selectivity ratio [2]: > 2
CC50 [3]: > 320 µg/mL
EC50 [4]: 24 µg/mL (≈ 98.3 µM)
CC50 [5]: > 320 µg/mL
selectivity ratio [6]: > 32
